According to patent US7026527B2, “Plant methionine synthase gene and methods for increasing the methionine content of the seeds of plants” (priority 1995, dated 2006):

Experiments:
[1] = system: E. coli strain Gif106M1 transformed with pBT436; assay type: cell-based; settings: M9 media with arginine, isoleucine, ampicillin
Excerpt: To establish that the cloned lysC gene was functional, pBT436 was transformed into E. coli strain Gif106M1 (E. coli Genetic Stock Center strain CGSC-5074) which has mutations in each of the three E. coli AK genes [Theze et al., J. Bacteriol., (1974), 117, 133-143|. This strain lacks all AK activity and therefore requires diaminopimelate (a precursor to lysine which is also essential for cell wall biosynthesis), threonine and methionine.
M9 media [see Sambrook et al. (1989) Molecular Cloning: A Laboratory Manual, Cold Spring Harbor Laboratory Press| supplemented with the arginine and isoleucine, required for Gif106M1 growth, and ampicillin, to maintain selection for the pBT436 plasmid, was used. […] This property of pBT436-transforned Gif106M1 was used to select for mutations in lysC that encoded lysine-insensitive AKIII.

wild type AKIII [2] = biological target: T1, wild type AKIII (Escherichia coli, UniProt P08660); test: Lysine inhibition of wild type AKIII aspartokinase activity; assay type: biochemical, E. coli
T1 construct: made in house; host or cells: E. coli Gif106M1 (lacks all AK activity) transformed with pBT436
Description: (§1) Single colonies of Gif106M1 transformed with pBT436 were picked and resuspended in 200 μL of a mixture of 100 μL 1% lysine plus 100 μL of M9 media. The entire cell suspension containing 10^7-10^8 cells was spread on a petri dish containing M9 media supplemented with the arginine, isoleucine, and ampicillin. Sixteen petri dishes were thus prepared. From 1 to 20 colonies appeared on 11 of the 16 petri dishes. One or two (if available) colonies were picked and retested for lysine resistance and from this nine lysine-resistant clones were obtained. Plasmid DNA was prepared from eight of these and re-transformed into Gif106M1 to determine whether the lysine resistance determinant was plasmid-borne. Six of the eight plasmid DNAs yielded lysine-resistant colonies. Three of these six carried lysC genes encoding AKIII that was uninhibited by 15 mM lysine, whereas wild type AKIII is 50% inhibited by 0.3-0.4 mM lysine and >90% inhibited by 1 mM lysine.
(§2) Assay mix (for 12×1.0 mL or 48×0.25 mL assays): • 2.5 mL H2O • 2.0 mL 4M KOH • 2.0 mL 4M NH2OH—HCl • 1.0 mL 1M Tris-HCl pH 8.0 • 0.5 mL 0.2M ATP (121 mg/ml in 0.2M NaOH) • 50 μL 1M MgSO4
(§3) Each 1.5 mL eppendorf assay tube contains:
(§4) Assay tubes are incubated at 30° C. for 30-60 min […];
(§5) Spin for 2 min in eppendorf centrifuge tube. Read OD at […].

wild type AKIII [3] = biological target: T2, wild type AKIII (Escherichia coli, UniProt P08660, G401A); test: as above; assay type: biochemical, E. coli; settings: read-out: inhibition of AKIII
T2 construct: made in house; host or cells: E. coli Gif106M1 (lacks all AK activity) transformed with pBT436
Description: as §1, §2, §3, §4, §5

[4] = biological target: T3, AKII-HDHII (HDH activity) (Escherichia coli, UniProt P00562); test: HDH activity of AKII-HDHII extract (clone 5), inhibition by pathway end-products; assay type: biochemical, E. coli; settings: 30 mM end-product; extract from clone 5
T3 construct: The primers also add a Kpn I site immediately following the translation stop codon; made in house; host or cells: E. coli BL21(DE3), pBT430-derived T7 vector; supernatant of sonicated cells (clone 5, plasmid pBT718)
Description: The cells were collected by centririgation and resuspended in 1/25th the original culture volume in 50 mM NaCl; 50 mM Tris-Cl, pH 7.5; 1 mM EDTA, and frozen at −20° C., thawed at 37° C. and sonicated, in an ice-water bath, to lyse the cells. The lysate was centrifuged at 4° C. for 5 min at 12,000 rpm. The supernatant was removed and the pellet was resuspended in the above buffer. The supernatant fractions were assayed for HDH enzyme activities to identify clones expressing functional proteins. HDH activity was assayed as shown below: HDH ASSAY
Make Mixture of above reagents with amounts multiplied by number of assays. Use 0.9 mL of mix for 1 mL assay; 180 μL of mix for 0.2 mL assay in microtiter dish
to ½ the assay mix; remaining ½ lacks ASA to serve as blank
Add enzyme extract last to start reaction. Incubate at ˜30° C.; monitor NADPH oxidation at 340 nM. 1 unit oxidizes 1 μmol NADPH/min at 30° C. in the 1 mL reaction.

AKII-HDHII (AK activity) = biological target: T4, AKII-HDHII (AK activity) (Escherichia coli, UniProt P00562); test: AK activity of AKII-HDHII extract (clone 5), inhibition by pathway end-products; assay type: biochemical, E. coli; settings: 30 mM end-product; extract from clone 5
T4 construct: The primers also add a Kpn I site immediately following the translation stop codon; made in house; host or cells: E. coli BL21(DE3), pBT430-derived T7 vector; supernatant of sonicated cells (clone 5, plasmid pBT718)
Description: These four were then assayed for AK activity. AK activity was assayed as shown below:
as §2
pH of assay mix should be 7-8
as §3, §4, §5
Two extracts also had high levels of AK enzyme activity. These two extracts were then tested for inhibition of AK or HDH activity by the pathway end-products, lys, thr and met.

[5] = biological target: T5, AKIII encoded by mutant lysC genes (lysine-insensitive) (Escherichia coli, UniProt P08660, G401A/T352I); assay type: biochemical, E. coli; settings: 15 mM lysine; three mutant lysC genes (M2, M3, M4)
T5 construct: made in house; host or cells: E. coli Gif106M1 carrying mutated pBT436 plasmids
Description: as §1
The sequences of the three mutant lysC genes that encoded lysine-insensitive AK each differed from the wild type sequence by a single nucleotide, resulting in a single amino acid substitution in the protein. […] Thus, either of these single amino acid substitutions is sufficient to render the AKIII enzyme insensitive to lysine inhibition. […]
as §5

T3 sequence (P00562 other isoform, or with tags, fused parts or gaps): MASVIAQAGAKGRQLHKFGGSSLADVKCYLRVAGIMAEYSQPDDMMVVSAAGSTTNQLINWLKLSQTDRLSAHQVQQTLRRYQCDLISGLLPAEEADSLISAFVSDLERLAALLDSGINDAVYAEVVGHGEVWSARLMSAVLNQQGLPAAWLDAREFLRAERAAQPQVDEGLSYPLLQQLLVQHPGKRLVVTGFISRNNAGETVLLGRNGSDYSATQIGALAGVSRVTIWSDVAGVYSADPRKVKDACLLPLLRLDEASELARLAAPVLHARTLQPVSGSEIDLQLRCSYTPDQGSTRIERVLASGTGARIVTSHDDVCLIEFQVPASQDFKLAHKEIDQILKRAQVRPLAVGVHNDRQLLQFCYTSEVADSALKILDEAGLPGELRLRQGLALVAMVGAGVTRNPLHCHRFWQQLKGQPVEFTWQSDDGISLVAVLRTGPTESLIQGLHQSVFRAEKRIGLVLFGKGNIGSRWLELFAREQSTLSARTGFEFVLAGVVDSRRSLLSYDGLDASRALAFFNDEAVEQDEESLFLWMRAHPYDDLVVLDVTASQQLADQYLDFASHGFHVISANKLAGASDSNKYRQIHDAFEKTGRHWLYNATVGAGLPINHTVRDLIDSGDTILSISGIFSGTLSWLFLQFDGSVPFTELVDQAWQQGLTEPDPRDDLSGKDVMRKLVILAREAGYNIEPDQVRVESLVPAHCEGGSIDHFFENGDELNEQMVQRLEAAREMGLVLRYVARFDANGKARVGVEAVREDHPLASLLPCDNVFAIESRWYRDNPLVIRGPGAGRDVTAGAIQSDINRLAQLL
T4 sequence (P00562 other isoform, or with tags, fused parts or gaps): as above
T5 sequence (P08660 2-449 T352I/G401A): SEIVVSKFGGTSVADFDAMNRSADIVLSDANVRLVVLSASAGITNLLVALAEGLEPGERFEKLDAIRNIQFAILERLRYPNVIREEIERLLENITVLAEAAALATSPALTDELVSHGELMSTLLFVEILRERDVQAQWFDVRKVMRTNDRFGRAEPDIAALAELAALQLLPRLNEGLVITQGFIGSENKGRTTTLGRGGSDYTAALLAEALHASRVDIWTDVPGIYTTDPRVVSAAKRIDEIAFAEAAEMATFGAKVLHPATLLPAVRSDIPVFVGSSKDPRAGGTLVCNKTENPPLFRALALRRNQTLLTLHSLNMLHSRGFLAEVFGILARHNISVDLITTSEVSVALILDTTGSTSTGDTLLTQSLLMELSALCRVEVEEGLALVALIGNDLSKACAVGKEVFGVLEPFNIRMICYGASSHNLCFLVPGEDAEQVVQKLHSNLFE
T2 sequence (P08660 2-449 G401A): as the sequence (P08660 2-449 T352I/G401A) above, with I351T counted along it
T1 sequence (P08660 2-449 G401A): as the sequence (P08660 2-449 T352I/G401A) above, with I351T counted along it

| Structure (SMILES) | concentration in growth medium that inhibits growth [1] | IC50 (wild type AKIII [2]) [µM] | inhibition at 1000 µM (wild type AKIII [3]) [%] | inhibition of HDH activity [4] | inhibition of AK activity (AKII-HDHII (AK activity)) | inhibition of mutant AKIII [5] |
| --- | --- | --- | --- | --- | --- | --- |
| NC(CCCC(N)C(=O)O)C(=O)O (centres unmarked) [diaminopimelate] | approximately 0.2 mM |  |  |  |  |  |
| NCCCC[C@H](N)C(=O)O [lysine] | approximately 0.2 mM | 300 to 400 | > 90 | Neither the AK nor the HDH activity of the extract from clone 5 was inhibited | Neither the AK nor the HDH activity of the extract from clone 5 was inhibited | uninhibited |
| CSCC[C@H](N)C(=O)O [methionine] |  |  |  | Neither the AK nor the HDH activity of the extract from clone 5 was inhibited | Neither the AK nor the HDH activity of the extract from clone 5 was inhibited |  |
| C[C@@H](O)[C@H](N)C(=O)O [threonine] |  |  |  | Neither the AK nor the HDH activity of the extract from clone 5 was inhibited | Neither the AK nor the HDH activity of the extract from clone 5 was inhibited |  |
